Measured values published in patent US20210253557A1, “SUBSTITUTED TRIAZOLE DERIVATIVES AND USES THEREOF” (Bayer Pharma Aktiengesellschaft, priority 2017, published 2021).

Key:
human V1a receptor = biological target: T1, human V1a receptor (Homo sapiens, UniProt P37288); assay: Cellular in vitro assay for determining vasopressin receptor activity (V1a, aequorin luminescence); assay type: cell-based; settings: for IC50: CHO cell line transfected with the human V1a receptor, [Arg8]-vasopressin at EC50 concentration, read-out: IC50 hV1a; for ratio IC50 hV2/hV1a: selectivity ratio of IC50 hV2 to IC50 hV1a
T1 construct: expressed in transfected cells; host or cells: CHO K1 (ATCC), also stably transfected with a modified aequorin
Protocol: (§1) B-1. Cellular In Vitro Assay for Determining Vasopressin Receptor Activity
(§2) The identification of agonists and antagonists of the V1a and V2 vasopressin receptors from humans, rats and dogs as well as the quantification of the activity of the compounds of the invention is carried out using recombinant cell lines. These cell lines originally derive from a hamster's ovary epithelial cell (Chinese Hamster Ovary, CHO K1, ATCC: American Type Culture Collection, Manassas, Va. 20108, USA). The test cell lines constitutively express the human, rat or dog V1a or V2 receptors. In case of the Gαq-coupled V1a receptors, cells are also stably transfected with a modified form of the calcium-sensitive photoproteins aequorin (human and rat V1a) or obelin (dog V1a), which, after reconstitution with the cofactor coelenterazine, emit light when there are increases in free calcium concentrations [Rizzuto R, Simpson A W, Brini M, Pozzan T, Nature 358, 325-327 (1992); Illarionov B A, Bondar V S, Illarionova V A, Vysotski E S, Gene 153 (2), 273-274 (1995)]. The resulting vasopressin receptor cells react to stimulation of the recombinantly expressed V1a receptors by intracellular release of calcium ions, which can be quantified by the resulting photoprotein luminescence. The Gs-coupled V2 receptors are stably transfected into cell lines expressing the gene for firefly luciferase under control of a CRE-responsible promoter. Activation of V2 receptors induces the activation of the CRE-responsive promoter via cAMP increase, thereby inducing the expression of firefly luciferase. The light emitted by photoproteins of V1a cell lines as well as the light emitted by firefly luciferase of V2 cell lines corresponds to the activation or inhibition of the respective vasopressin receptor. The bioluminescence of the cell lines is detected using a suitable luminometer [Milligan G, Marshall F, Rees S, Trends in Pharmacological Sciences 17, 235-237 (1996)].
Vasopressin V1a receptor cell lines:
On the day before the assay, the cells are plated out in culture medium (DMEM/F12, 2% FCS, 2 mM glutamine, 10 mM HEPES, 5 μg/ml coelenterazine) in 384-well microtiter plates and kept in a cell incubator (96% humidity, 5% v/v CO2, 37° C.). On the day of the assay, test compounds in various concentrations are placed for 10 minutes in the wells of the microtiter plate before the agonist [Arg^8]-vasopressin at EC50 concentration is added. The resulting light signal is measured immediately in a luminometer.
(§3) Table 1A below lists individual IC50 values for the compounds of the invention (including racemic mixtures as well as separated enantiomers) that were obtained from cell lines transfected with the human V1a or V2 receptor: […]

human V2 receptor = biological target: T2, human V2 receptor (Homo sapiens, UniProt P30518); assay: Cellular in vitro assay for determining vasopressin receptor activity (V2, CRE-luciferase); assay type: cell-based; settings: CHO cell line transfected with the human V2 receptor; [Arg8]-vasopressin at EC50 concentration; read-out: IC50 hV2
T2 construct: expressed in transfected cells; host or cells: CHO K1 (ATCC) expressing firefly luciferase under a CRE-responsive promoter
Protocol: as §1, §2
Vasopressin V2 receptor cell lines:
On the day before the assay, the cells are plated out in culture medium (DMEM/F12, 2% FCS, 2 mM glutamine, 10 mM HEPES) in 384-well microtiter plates and kept in a cell incubator (96% humidity, 5% v/v CO2, 37° C.). On the day of the assay, test compounds in various concentrations and the agonist [Arg^8]-vasopressin at EC50 concentration are added together to the wells, and plates are incubated for 3 hours in a cell incubator. Upon addition of the cell lysis reagent Triton™ and the substrate luciferin, luminescence of firefly luciferase is measured in a luminometer.
as §3

T2 sequence (P30518 whole entry): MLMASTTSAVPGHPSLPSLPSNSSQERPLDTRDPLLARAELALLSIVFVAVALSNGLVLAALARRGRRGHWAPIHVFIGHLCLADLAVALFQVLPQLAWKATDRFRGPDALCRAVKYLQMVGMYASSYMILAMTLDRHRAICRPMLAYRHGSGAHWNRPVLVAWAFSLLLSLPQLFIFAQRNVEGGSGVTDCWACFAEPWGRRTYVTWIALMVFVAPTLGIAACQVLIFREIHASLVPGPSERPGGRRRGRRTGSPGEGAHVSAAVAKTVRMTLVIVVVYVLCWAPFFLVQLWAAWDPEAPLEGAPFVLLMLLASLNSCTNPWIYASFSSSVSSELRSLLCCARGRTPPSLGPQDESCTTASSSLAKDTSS
T1 sequence (P37288 whole entry): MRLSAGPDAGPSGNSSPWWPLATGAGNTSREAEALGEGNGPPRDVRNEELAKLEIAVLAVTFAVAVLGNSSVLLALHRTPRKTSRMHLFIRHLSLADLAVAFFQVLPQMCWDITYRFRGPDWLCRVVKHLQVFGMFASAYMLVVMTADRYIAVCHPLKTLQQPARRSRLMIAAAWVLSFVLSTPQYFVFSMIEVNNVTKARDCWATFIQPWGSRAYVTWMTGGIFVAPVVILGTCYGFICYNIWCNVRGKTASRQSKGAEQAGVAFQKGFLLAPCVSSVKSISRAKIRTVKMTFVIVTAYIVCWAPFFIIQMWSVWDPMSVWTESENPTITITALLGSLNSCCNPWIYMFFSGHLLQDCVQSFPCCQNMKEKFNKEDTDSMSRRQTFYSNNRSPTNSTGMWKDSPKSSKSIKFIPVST

IC50 (human V1a receptor) [nM]	ratio IC50 hV2/hV1a (human V1a receptor)	IC50 (human V2 receptor) [nM]	Structure (SMILES)
1.95	41.3	80.5	CC(C)(C)OCC(NS(C)(=O)=O)c1nc(Cn2nc(-c3ccc(Cl)cc3)n(C[C@H](O)C(F)(F)F)c2=O)nn1-c1ccccc1Cl (single isomer, unassigned) [Example 83]
4.75	9.4	44.5	CC(C)(C)OCC(NS(C)(=O)=O)c1nc(Cn2nc(-c3ccc(Cl)cc3)n(C[C@H](O)C(F)(F)F)c2=O)nn1-c1ccccc1Cl (single isomer, unassigned) [Example 84]
0.97	2.1	2	CS(=O)(=O)NC(CO)c1nc(Cn2nc(-c3ccc(Cl)cc3)n(C[C@H](O)C(F)(F)F)c2=O)nn1-c1ccccc1Cl (single isomer, unassigned) [Example 86]
2.25	15.8	35.5	CS(=O)(=O)NC(CO)c1nc(Cn2nc(-c3ccc(Cl)cc3)n(C[C@H](O)C(F)(F)F)c2=O)nn1-c1ccccc1Cl (single isomer, unassigned) [Example 87]
3.45	37.4	129	CC(=O)NC(COC(C)(C)C)c1nc(Cn2nc(-c3ccc(Cl)cc3)n(C[C@H](O)C(F)(F)F)c2=O)nn1-c1ccccc1Cl (single isomer, unassigned) [Example 89]
12.5	392.0	4900	CC(=O)NC(COC(C)(C)C)c1nc(Cn2nc(-c3ccc(Cl)cc3)n(C[C@H](O)C(F)(F)F)c2=O)nn1-c1ccccc1Cl (single isomer, unassigned) [Example 90]
5.1	3.4	17.5	CC(=O)NC(CO)c1nc(Cn2nc(-c3ccc(Cl)cc3)n(C[C@H](O)C(F)(F)F)c2=O)nn1-c1ccccc1Cl (single isomer, unassigned) [Example 92]
0.78	20.0	15.5	CC(=O)NC(CO)c1nc(Cn2nc(-c3ccc(Cl)cc3)n(C[C@H](O)C(F)(F)F)c2=O)nn1-c1ccccc1Cl (single isomer, unassigned) [Example 93]
0.55	6.0	3.25	O=C(NC(CO)c1nc(Cn2nc(-c3ccc(Cl)cc3)n(C[C@H](O)C(F)(F)F)c2=O)nn1-c1ccccc1Cl)C(F)(F)F (single isomer, unassigned) [Example 96]
4.45	4.5	20	O=C(NC(CO)c1nc(Cn2nc(-c3ccc(Cl)cc3)n(C[C@H](O)C(F)(F)F)c2=O)nn1-c1ccccc1Cl)C(F)(F)F (single isomer, unassigned) [Example 97]
3.3	6.4	21	O=C1NC(c2nc(Cn3nc(-c4ccc(Cl)cc4)n(C[C@H](O)C(F)(F)F)c3=O)nn2-c2ccccc2Cl)CO1 (single isomer, unassigned) [Example 99]
4.33	20.2	87.5	O=C1NC(c2nc(Cn3nc(-c4ccc(Cl)cc4)n(C[C@H](O)C(F)(F)F)c3=O)nn2-c2ccccc2Cl)CO1 (single isomer, unassigned) [Example 100]
3.1	56.4	175	CN1C(=O)CC[C@@H]1c1nc(Cn2nc(-c3ccc(Cl)cc3)n(C[C@H](O)C(F)(F)F)c2=O)nn1-c1ncccc1Cl (single isomer, unassigned) [Example 104]
2.1	24.3	51	CN1C(=O)CC[C@@H]1c1nc(Cn2nc(-c3ccc(Cl)cc3)n(C[C@H](O)C(F)(F)F)c2=O)nn1-c1ncccc1Cl (single isomer, unassigned) [Example 105]
6.03	11.5	69.4	CC(=O)NC(C)c1nc(Cn2nc(-c3ccc(Cl)cc3)n(C[C@H](O)C(F)(F)F)c2=O)nn1-c1ncccc1Cl (single isomer, unassigned) [Example 108]
39	10.5	408	CC(=O)NC(C)c1nc(Cn2nc(-c3ccc(Cl)cc3)n(C[C@H](O)C(F)(F)F)c2=O)nn1-c1ncccc1Cl (single isomer, unassigned) [Example 109]

More lines, now with the values behind:

Structure (SMILES)	IC50 (human V1a receptor) [nM]	ratio IC50 hV2/hV1a (human V1a receptor)	IC50 (human V2 receptor) [nM]
COc1ccccc1-n1nc(Cn2nc(-c3ccc(Cl)cc3)n(C[C@H](OC(N)=O)C(F)(F)F)c2=O)nc1C(C)OC(N)=O (single isomer, unassigned) [Example 42]	1.08	6.8	7.37
CC(N)c1nc(Cn2nc(-c3ccc(Cl)cc3)n(C[C@H](O)C(F)(F)F)c2=O)nn1-c1cccc(F)c1 (single isomer, unassigned) [Example 54]	3.09	1.4	4.2
CC(N)c1nc(Cn2nc(-c3ccc(Cl)cc3)n(C[C@H](O)C(F)(F)F)c2=O)nn1-c1cccc(F)c1 (single isomer, unassigned) [Example 55]	18	1.4	26
CC(N)c1nc(Cn2nc(-c3ccc(Cl)cc3)n(C[C@H](O)C(F)(F)F)c2=O)nn1-c1ccccc1Cl (single isomer, unassigned) [Example 61]	0.45	6.3	2.83
CC(N)c1nc(Cn2nc(-c3ccc(Cl)cc3)n(C[C@H](O)C(F)(F)F)c2=O)nn1-c1ccccc1Cl (single isomer, unassigned) [Example 62]	0.97	11.7	11.4
CC(=O)NC(C)c1nc(Cn2nc(-c3ccc(Cl)cc3)n(C[C@H](O)C(F)(F)F)c2=O)nn1-c1ccccc1Cl (single isomer, unassigned) [Example 65]	2.05	5.3	10.8
CC(=O)NC(C)c1nc(Cn2nc(-c3ccc(Cl)cc3)n(C[C@H](O)C(F)(F)F)c2=O)nn1-c1ccccc1Cl (single isomer, unassigned) [Example 66]	3.75	14.0	52.5
CC(NS(C)(=O)=O)c1nc(Cn2nc(-c3ccc(Cl)cc3)n(C[C@H](O)C(F)(F)F)c2=O)nn1-c1ccccc1Cl (single isomer, unassigned) [Example 68]	0.97	4.6	4.5
CC(NS(C)(=O)=O)c1nc(Cn2nc(-c3ccc(Cl)cc3)n(C[C@H](O)C(F)(F)F)c2=O)nn1-c1ccccc1Cl (single isomer, unassigned) [Example 69]	0.7	12.4	8.65
CN1C(=O)CCC1c1nc(Cn2nc(-c3ccc(Cl)cc3)n(C[C@H](O)C(F)(F)F)c2=O)nn1-c1ccccc1Cl (single isomer, unassigned) [Example 71]	0.7	19.7	13.8
CN1C(=O)CCC1c1nc(Cn2nc(-c3ccc(Cl)cc3)n(C[C@H](O)C(F)(F)F)c2=O)nn1-c1ccccc1Cl (single isomer, unassigned) [Example 72]	0.67	9.9	6.63
CC(NC(=O)C(F)(F)F)c1nc(Cn2nc(-c3ccc(Cl)cc3)n(C[C@H](O)C(F)(F)F)c2=O)nn1-c1ccccc1Cl (single isomer, unassigned) [Example 74]	5.35	3.4	18
CC(NC(=O)C(F)(F)F)c1nc(Cn2nc(-c3ccc(Cl)cc3)n(C[C@H](O)C(F)(F)F)c2=O)nn1-c1ccccc1Cl (single isomer, unassigned) [Example 75]	4.2	14.1	59
